Assay results as given in patent US7696161B2, “Exendin agonist compounds” (Amylin Pharmaceuticals, Inc., priority 1997, dated 2010).

Columns and labels:
[1] = target: cyclase (RINm5f membranes); assay: Cyclase activation study (cAMP by SPA immunoassay, membranes); format: biochemical; settings: cAMP in membranes, 20 minutes incubation at 37° C.
Procedure: GLP-1(7-36) [NH2] was purchased from Bachem (Torrance, Calif.). All other peptides were prepared using synthesis methods such as those described therein. All chemicals were of the highest commercial grade. The cAMP SPA immunoassay was purchased from Amersham. The radioligands were purchased from New England Nuclear (Boston, Mass.). […] Cells were grown to confluence then harvested and homogenized using on a Polytron homogenizer. Cell homogenates were stored frozen at −70° C. until used. […] Membranes and peptides were combined in […] of assay buffer in 96 well filter-bottom plates (Millipore Corp., Bedford, Mass.). […] Supernatant cAMP contents were quantitated by SPA immunoassay. […] The biological activity of a particular sample was expressed as an EC50 value, calculated as described above.

C57BLKS/J-m-db mice = assay: Determination of blood glucose levels in db/db mice; format: in vivo; settings: 1 μg subcutaneous, plasma glucose one hour after injection vs baseline
[2] = test system: Harlan Sprague Dawley (HSD) rats; assay: Gastric emptying in rats (phenol red gel gavage); format: in vivo; settings: for EC50 (gastric emptying): conscious male HSD rats, gastric contents remaining 20 min after gavage; for effect on gastric emptying (in words): male HSD rats, dose-response 0.1-100 μg
Description: This experiment followed a modification of the method of Scarpignato, et al., Arch. Int. Pharmacodyn. […] Male Harlan Sprague Dawley (HSD) rats were used. […] ID. […] Twenty minutes after gavage, rats were anesthetized using 5% halothane, the stomach exposed and clamped at the pyloric and lower esophageal sphincters using artery forceps, removed and opened into an alkaline solution which was made up to a fixed volume. Stomach content was derived from the intensity of the phenol red in the alkaline solution, measured by absorbance at a wavelength of 560 nm. In separate experiments on 7 rats, the stomach and small intestine were both excised and opened into an alkaline solution. […] ID.

Compound	EC50 [1] [nM]	% drop in glucose (C57BLKS/J-m-db mice) [%]	EC50 (gastric emptying) [2] [µg]	effect on gastric emptying (in words) [2]
CC[C@H](C)[C@H](NC(=O)[C@H](Cc1ccccc1)NC(=O)[C@H](CC(C)C)NC(=O)[C@H](CCCNC(=N)N)NC(=O)[C@@H](NC(=O)[C@H](C)NC(=O)[C@H](CCC(=O)O)NC(=O)[C@H](CCC(=O)O)NC(=O)[C@H](CCC(=O)O)NC(=O)[C@H](CC(C)C)NC(=O)[C@H](CCC(N)=O)NC(=O)[C@H](C)NC(=O)[C@H](CO)NC(=O)[C@H](CC(C)C)NC(=O)[C@H](CC(=O)O)NC(=O)[C@H](CO)NC(=O)[C@@H](NC(=O)[C@H](Cc1ccccc1)NC(=O)[C@@H](NC(=O)CNC(=O)[C@H](CCC(=O)O)NC(=O)CNC(=O)[C@@H](N)Cc1c[nH]cn1)[C@@H](C)O)[C@@H](C)O)C(C)C)C(=O)N[C@@H](CCC(=O)O)C(=O)N[C@@H](Cc1ccccc1)C(=O)N[C@@H](CC(C)C)C(=O)N[C@@H](CCCCN)C(=O)N[C@@H](CC(N)=O)C(N)=O [Compound 10]	5.37	46	0.27	potent inhibitors of gastric emptying
CC[C@H](C)[C@H](NC(=O)[C@H](Cc1ccccc1)NC(=O)[C@H](CC(C)C)NC(=O)[C@H](CCCNC(=N)N)NC(=O)[C@@H](NC(=O)[C@H](C)NC(=O)[C@H](CCC(=O)O)NC(=O)[C@H](CCC(=O)O)NC(=O)[C@H](C)NC(=O)[C@H](CC(C)C)NC(=O)[C@H](CCC(N)=O)NC(=O)[C@H](CCCCN)NC(=O)[C@H](CO)NC(=O)[C@H](CC(C)C)NC(=O)[C@H](CC(=O)O)NC(=O)[C@H](CO)NC(=O)[C@@H](NC(=O)[C@H](Cc1ccccc1)NC(=O)[C@@H](NC(=O)CNC(=O)[C@H](CCC(=O)O)NC(=O)CNC(=O)[C@@H](N)Cc1c[nH]cn1)[C@@H](C)O)[C@@H](C)O)C(C)C)C(=O)N[C@@H](CCC(=O)O)C(=O)N[C@@H](Cc1ccccc1)C(=O)N[C@@H](CC(C)C)C(=O)N[C@@H](CCCCN)C(=O)N[C@@H](CC(N)=O)C(N)=O [Compound 13]	79.6	45	60	potent inhibitors of gastric emptying
CC[C@H](C)[C@H](NC(=O)[C@H](Cc1ccccc1)NC(=O)[C@H](CC(C)C)NC(=O)[C@H](CCCNC(=N)N)NC(=O)[C@H](C)NC(=O)[C@H](C)NC(=O)[C@H](CCC(=O)O)NC(=O)[C@H](CCC(=O)O)NC(=O)[C@H](CCC(=O)O)NC(=O)[C@H](CC(C)C)NC(=O)[C@H](CCC(N)=O)NC(=O)[C@H](CCCCN)NC(=O)[C@H](CO)NC(=O)[C@H](CC(C)C)NC(=O)[C@H](CC(=O)O)NC(=O)[C@H](CO)NC(=O)[C@@H](NC(=O)[C@H](Cc1ccccc1)NC(=O)[C@@H](NC(=O)CNC(=O)[C@H](CCC(=O)O)NC(=O)CNC(=O)[C@@H](N)Cc1c[nH]cn1)[C@@H](C)O)[C@@H](C)O)C(=O)N[C@@H](CCC(=O)O)C(=O)N[C@@H](Cc1ccccc1)C(=O)N[C@@H](CC(C)C)C(=O)N[C@@H](CCCCN)C(=O)N[C@@H](CC(N)=O)C(N)=O [Compound 16]	5.12	54	–	–
CC[C@H](C)[C@H](NC(=O)[C@H](Cc1ccccc1)NC(=O)[C@H](CC(C)C)NC(=O)[C@H](C)NC(=O)[C@@H](NC(=O)[C@H](C)NC(=O)[C@H](CCC(=O)O)NC(=O)[C@H](CCC(=O)O)NC(=O)[C@H](CCC(=O)O)NC(=O)[C@H](CC(C)C)NC(=O)[C@H](CCC(N)=O)NC(=O)[C@H](CCCCN)NC(=O)[C@H](CO)NC(=O)[C@H](CC(C)C)NC(=O)[C@H](CC(=O)O)NC(=O)[C@H](CO)NC(=O)[C@@H](NC(=O)[C@H](Cc1ccccc1)NC(=O)[C@@H](NC(=O)CNC(=O)[C@H](CCC(=O)O)NC(=O)CNC(=O)[C@@H](N)Cc1c[nH]cn1)[C@@H](C)O)[C@@H](C)O)C(C)C)C(=O)N[C@@H](CCC(=O)O)C(=O)N[C@@H](Cc1ccccc1)C(=O)N[C@@H](CC(C)C)C(=O)N[C@@H](CCCCN)C(=O)N[C@@H](CC(N)=O)C(N)=O [Compound 17]	43.6	45	–	–
CC[C@H](C)[C@H](NC(=O)[C@H](Cc1ccccc1)NC(=O)[C@H](C)NC(=O)[C@H](CCCNC(=N)N)NC(=O)[C@@H](NC(=O)[C@H](C)NC(=O)[C@H](CCC(=O)O)NC(=O)[C@H](CCC(=O)O)NC(=O)[C@H](CCC(=O)O)NC(=O)[C@H](CC(C)C)NC(=O)[C@H](CCC(N)=O)NC(=O)[C@H](CCCCN)NC(=O)[C@H](CO)NC(=O)[C@H](CC(C)C)NC(=O)[C@H](CC(=O)O)NC(=O)[C@H](CO)NC(=O)[C@@H](NC(=O)[C@H](Cc1ccccc1)NC(=O)[C@@H](NC(=O)CNC(=O)[C@H](CCC(=O)O)NC(=O)CNC(=O)[C@@H](N)Cc1c[nH]cn1)[C@@H](C)O)[C@@H](C)O)C(C)C)C(=O)N[C@@H](CCC(=O)O)C(=O)N[C@@H](Cc1ccccc1)C(=O)N[C@@H](CC(C)C)C(=O)N[C@@H](CCCCN)C(=O)N[C@@H](CC(N)=O)C(N)=O [Compound 18]	0.76	50	–	–
